Entries after “also recorded” stand apart in the source; their conditions may differ. Where two headings read alike, the source gives them in different places. Marks after values point to notes of the source that are not given here. Each block holds one compound with its values, some of them ahead of it.
What was measured:
hA2AAR = hA2AAR (Homo sapiens, UniProt P29274); assay: A2AAR binding, [3H]47, HEK293 cell membranes; conditions: read-out: A2AAR % inhibition
5HT2BR [1] = target: T1, 5HT2BR (Homo sapiens, UniProt P41595); type: binding
5HT2AR [2] = target: T2, 5HT2AR (Homo sapiens, UniProt P28223); assay: 5HT2AR radioligand binding, [3H]ketanserin, HEKT cell membranes; conditions: read-out: 5HT2AR % inhibition
A1AR [3] = target: T3, A1AR (Homo sapiens, UniProt P30542); assay: A1AR binding, [3H]N6-phenylisopropyladenosine 45
T3 sequence (P30542 1-326): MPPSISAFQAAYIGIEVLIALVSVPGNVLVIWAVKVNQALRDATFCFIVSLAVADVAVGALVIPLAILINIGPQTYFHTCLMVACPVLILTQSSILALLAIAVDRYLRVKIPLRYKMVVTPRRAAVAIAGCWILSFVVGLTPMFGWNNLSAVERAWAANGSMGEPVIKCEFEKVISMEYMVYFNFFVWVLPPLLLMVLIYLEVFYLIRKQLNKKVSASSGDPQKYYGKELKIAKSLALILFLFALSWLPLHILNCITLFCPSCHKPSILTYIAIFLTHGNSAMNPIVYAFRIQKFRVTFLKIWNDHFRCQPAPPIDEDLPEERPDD

A3AR [4] = target: T4, A3AR (Homo sapiens, UniProt P0DMS8); assay: A3AR binding, [125I]46
T4 sequence (P0DMS8 1-318): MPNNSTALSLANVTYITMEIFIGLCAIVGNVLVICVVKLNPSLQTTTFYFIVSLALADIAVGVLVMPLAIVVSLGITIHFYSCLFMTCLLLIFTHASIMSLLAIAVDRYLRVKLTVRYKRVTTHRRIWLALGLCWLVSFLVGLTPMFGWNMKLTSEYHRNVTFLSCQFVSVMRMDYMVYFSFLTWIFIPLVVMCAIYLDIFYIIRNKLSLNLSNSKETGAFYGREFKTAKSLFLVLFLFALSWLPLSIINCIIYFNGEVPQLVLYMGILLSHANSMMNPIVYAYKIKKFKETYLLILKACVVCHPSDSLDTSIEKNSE

5HT2CR [5] = target: T5, 5HT2CR (Homo sapiens, UniProt P28335); assay: 5HT2CR radioligand binding, [3H]mesulergine 44, Flp IN HEK cell membranes; conditions: 5HT2CR Ki, mean ± SEM; ^d n = 1
T5 sequence (P28335 33-458): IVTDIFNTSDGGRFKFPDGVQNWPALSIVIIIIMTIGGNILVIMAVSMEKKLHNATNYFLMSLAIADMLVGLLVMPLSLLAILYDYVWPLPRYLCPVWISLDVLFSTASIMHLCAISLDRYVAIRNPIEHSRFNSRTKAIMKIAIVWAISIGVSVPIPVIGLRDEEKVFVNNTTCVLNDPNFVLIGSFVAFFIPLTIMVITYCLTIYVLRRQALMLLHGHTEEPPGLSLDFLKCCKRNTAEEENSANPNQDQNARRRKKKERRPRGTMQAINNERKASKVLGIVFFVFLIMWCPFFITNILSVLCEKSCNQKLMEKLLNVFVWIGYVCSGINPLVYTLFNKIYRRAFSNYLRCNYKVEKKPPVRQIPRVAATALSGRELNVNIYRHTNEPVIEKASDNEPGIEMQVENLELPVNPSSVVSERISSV

5HT2CR [6] = target: T5, 5HT2CR; assay: 5HT2CR functional calcium mobilization assay; type: cell-based; conditions: 10 µM; result in words
5HT2AR [7] = target: T2, 5HT2AR; assay: 5HT2AR functional calcium mobilization assay; type: cell-based; conditions: 10 µM; result in words
5HT2BR [8] = target: T1, 5HT2BR; type: cell-based
A3AR [9] = conditions: read-out: A3AR Ki; rat (r); archival data ref 22, 24–27; cited from earlier work
A1AR [10] = conditions: read-out: A1AR Ki; rat (r); archival data ref 22, 24–27; cited from earlier work
human 5HT5AR = human 5HT5AR (Homo sapiens, UniProt P47898); assay: 5HT5AR binding; conditions: result in words
A3AR [11] = target: T4, A3AR; conditions: read-out: A3AR Ki, archival data ref 22, 24–27; cited from earlier work
A2AAR = conditions: rat (r), archival data ref 22, 24–27, cited from earlier work
[12] = Cytotoxicity in HepG2 cells; type: cell-based; conditions: human
[13] = system: 5 CYP isozymes (A2, 2C9, 2C19, 2D6, 3A4); assay: Inhibition of 5 CYP isozymes; type: in vitro ADME; conditions: human
[14] = Stability in human plasma; type: in vitro ADME; conditions: for remaining at 2 h: human, plasma, Stability in plasma, % remaining at 120 min
CACO cell permeability = type: in vitro ADME; conditions: human
CACO-2 cells = assay: CACO cell permeability; type: in vitro ADME; conditions: CACO-2 cells
5HT2CR [15] = target: T5, 5HT2CR; conditions: read-out: 5HT2CR Ki; archival data ref 8, 9, 22, 24–27; cited from earlier work
5HT2AR [16] = target: T2, 5HT2AR; conditions: inhibition of binding at 10 µM; archival data ref 9, 22, 24–27; cited from earlier work

T2 sequence (P28223 whole entry): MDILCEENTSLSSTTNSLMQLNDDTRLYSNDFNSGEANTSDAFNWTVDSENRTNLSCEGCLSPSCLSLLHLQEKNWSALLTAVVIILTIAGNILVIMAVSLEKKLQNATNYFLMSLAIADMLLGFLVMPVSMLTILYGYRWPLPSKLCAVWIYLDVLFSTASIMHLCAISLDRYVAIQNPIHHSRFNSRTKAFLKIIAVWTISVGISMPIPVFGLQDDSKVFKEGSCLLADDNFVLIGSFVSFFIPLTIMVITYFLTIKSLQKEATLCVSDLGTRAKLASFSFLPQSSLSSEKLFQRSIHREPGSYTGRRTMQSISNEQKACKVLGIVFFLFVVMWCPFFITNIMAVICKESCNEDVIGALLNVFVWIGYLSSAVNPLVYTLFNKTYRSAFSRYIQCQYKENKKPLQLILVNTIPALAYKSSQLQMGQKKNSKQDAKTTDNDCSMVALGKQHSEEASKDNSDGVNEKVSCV
T1 sequence (P41595 whole entry): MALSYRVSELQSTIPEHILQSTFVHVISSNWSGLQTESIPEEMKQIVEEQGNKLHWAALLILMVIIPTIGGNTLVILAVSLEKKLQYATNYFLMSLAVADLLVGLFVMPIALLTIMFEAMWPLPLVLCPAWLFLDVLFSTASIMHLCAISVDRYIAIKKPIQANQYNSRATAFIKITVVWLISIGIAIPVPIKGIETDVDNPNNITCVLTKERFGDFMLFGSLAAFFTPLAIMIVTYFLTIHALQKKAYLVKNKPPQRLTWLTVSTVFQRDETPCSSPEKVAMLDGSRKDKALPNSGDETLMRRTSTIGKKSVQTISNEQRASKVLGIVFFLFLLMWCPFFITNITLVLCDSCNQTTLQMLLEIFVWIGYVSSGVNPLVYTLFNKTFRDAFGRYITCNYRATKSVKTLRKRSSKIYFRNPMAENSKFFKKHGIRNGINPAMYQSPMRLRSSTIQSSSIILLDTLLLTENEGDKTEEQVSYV
hA2AAR, sequence (P29274 whole entry): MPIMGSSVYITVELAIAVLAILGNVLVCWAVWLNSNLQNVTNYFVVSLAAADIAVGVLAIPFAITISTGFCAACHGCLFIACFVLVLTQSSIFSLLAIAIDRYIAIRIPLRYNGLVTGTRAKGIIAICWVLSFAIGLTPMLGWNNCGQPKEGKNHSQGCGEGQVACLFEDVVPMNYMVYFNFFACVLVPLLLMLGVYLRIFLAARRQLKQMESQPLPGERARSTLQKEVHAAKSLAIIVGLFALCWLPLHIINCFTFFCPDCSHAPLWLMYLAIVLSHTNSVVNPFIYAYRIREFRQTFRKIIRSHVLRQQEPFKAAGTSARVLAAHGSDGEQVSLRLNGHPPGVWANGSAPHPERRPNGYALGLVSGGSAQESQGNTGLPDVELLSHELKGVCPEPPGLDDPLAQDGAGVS
human 5HT5AR, sequence (P47898 whole entry): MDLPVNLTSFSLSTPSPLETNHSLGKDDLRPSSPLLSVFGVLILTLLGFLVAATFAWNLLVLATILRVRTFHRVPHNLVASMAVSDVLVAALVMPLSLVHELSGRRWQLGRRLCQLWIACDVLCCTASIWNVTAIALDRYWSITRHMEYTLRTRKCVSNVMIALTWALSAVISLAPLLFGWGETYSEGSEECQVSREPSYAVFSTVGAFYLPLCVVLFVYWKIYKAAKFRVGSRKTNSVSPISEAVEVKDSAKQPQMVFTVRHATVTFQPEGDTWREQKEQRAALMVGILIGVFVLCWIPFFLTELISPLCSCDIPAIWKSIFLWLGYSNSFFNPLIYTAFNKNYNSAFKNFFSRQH

Compound: NCCNC(=O)[C@@]12C[C@@H]1[C@@H](n1cnc3c(NC(C4CC4)C4CC4)nc(Cl)nc31)[C@H](O)[C@@H]2O [compound 31, (1S,2R,3S,4R,5S)-N-(2-Aminoethyl)-4-(2-chloro-6-((dicyclopropylmethyl)amino)-9H-purin-9-yl)-2,3-dihydroxybicyclo[3.1.0]hexane-1-carboxamide]
inhibition at 10 µM (hA2AAR): 23 ± 5%
Ki (5HT2BR [1]): 630 ± 146 nM
inhibition at 10 µM (5HT2AR [2]): < 10%
Ki (A1AR [3]): 2580 ± 1220 nM
Ki (A3AR [4]): 8110 ± 1270 nM
Ki (5HT2CR [5]): 142 ± 1 nM

Compound: NCCCNC(=O)[C@@]12C[C@@H]1[C@@H](n1cnc3c(NC(C4CC4)C4CC4)nc(Cl)nc31)[C@H](O)[C@@H]2O [compound 32, (1S,2R,3S,4R,5S)-N-(3-Aminopropyl)-4-(2-chloro-6-((dicyclopropylmethyl)amino)-9H-purin-9-yl)-2,3-dihydroxybicyclo[3.1.0]hexane-1-carboxamide]
inhibition at 10 µM (hA2AAR): 26 ± 5%
Ki (5HT2BR [1]): 1120 ± 310 nM
inhibition at 10 µM (5HT2AR [2]): < 10%
inhibition at 10 µM (A1AR [3]; read-out: A1AR % inhibition): 45 ± 4%
inhibition at 10 µM (A3AR [4]; read-out: A3AR % inhibition): 55 ± 1%
Ki (5HT2CR [5]): 137 ± 19 nM

Compound: CCOC(=O)[C@@]12C[C@@H]1[C@@H](n1cnc3c(NC(C4CC4)C4CC4)nc(Cl)nc31)[C@H](O)[C@@H]2O [compound 26, Ethyl (1S,2R,3S,4R,5S)-4-(2-chloro-6-((dicyclopropylmethyl)amino)-9H-purin-9-yl)-2,3-dihydroxybicyclo[3.1.0]hexane-1-carboxylate]
agonist activity at 5HT2CR (5HT2CR [6]): did not display significant; also recorded: no appreciable agonist or partial agonist activity
agonist or antagonist activity at 5HT2AR (5HT2AR [7]): did not display significant agonist or antagonist activity; also recorded: no activity as agonist or antagonist
agonist activity at 5HT2BR (5HT2BR [8]): did not display significant; also recorded: no appreciable agonist or partial agonist activity

Compound: Nc1nc(Cl)nc2c1ncn2[C@H]1[C@H](O)[C@H](O)[C@]2(CO)C[C@H]12 [compound 12]
Ki (A3AR [9]): 85 nM
Ki (A1AR [10]): 273 nM

Compound: CNC(=O)[C@H]1O[C@@H](n2cnc3c(N)ncnc32)[C@H](O)[C@@H]1O [compound 7, reference compound]
Ki (A1AR [10]): 84 nM

binding at the human 5HT5AR (human 5HT5AR): bound weakly
Compound: CN(C)c1nc(Cl)nc2c1ncn2[C@H]1[C@H](O)[C@H](O)[C@]2(C(=O)O)C[C@H]12 [compound 30, (1S,2R,3S,4R,5S)-4-(2-Chloro-6-(dimethylamino)-9H-purin-9-yl)-2,3-dihydroxybicyclo [3.1.0]hexane-1-carboxylic acid]

Compound: CNc1nc(Cl)nc2c1ncn2[C@H]1[C@H](O)[C@H](O)[C@]2(CO)C[C@H]12 [compound 13]
Ki (A1AR [10]): 1470 nM
Ki (A3AR [11]): 23 nM
A2AAR % inhibition (A2AAR; inhibition of binding at 10 µM): <10% (r) ^c

reduction of A3AR affinity (A3AR [4]; 39 vs. 42): 34 fold
Compound: CNC(=O)[C@@]12C[C@@H]1[C@@H](n1cnc3c(N(C)C)nc(C#Cc4ccc(Cl)s4)nc31)[C@H](O)[C@@H]2O [compound 42]

Compound: CNC(=O)[C@@]12C[C@@H]1[C@@H](n1cnc3c(NC(C4CC4)C4CC4)nc(Cl)nc31)[C@H](O)[C@@H]2O [compound 23, (1S,2R,3S,4R,5S)-4-(2-Chloro-6-((dicyclopropylmethyl)amino)-9H-purin-9-yl)-2,3-dihydroxy-N-methylbicyclo[3.1.0]hexane-1-carboxamide]
CC50 [12]: > 30000 nM
agonist activity at 5HT2CR (5HT2CR [6]): no appreciable agonist or partial agonist activity
agonist or antagonist activity at 5HT2AR (5HT2AR [7]): no activity as agonist or antagonist
agonist activity at 5HT2BR (5HT2BR [8]): no appreciable agonist or partial agonist activity
IC50 [13]: > 30000 nM
Stability in plasma, % remaining at 120 min, Human [14]: 104%
remaining at 2 h [14]: ~100%
Papp B→A (CACO cell permeability; Caco-2): 46.2 ×10⁻⁶ cm/s
Papp A→B (CACO cell permeability; Caco-2, Papp, A->B, CACO-2 cells): 4.73 ×10⁻⁶ cm/s

Compound: OC[C@H]1O[C@@H](n2cnc3c(NC(C4CC4)C4CC4)ncnc32)[C@H](O)[C@@H]1O [compound 6]
Ki (A2AAR; read-out: A2AAR Ki): 1370 nM

Compound: COC(=O)[C@@]12C[C@@H]1[C@@H](n1cnc3c(NC(C4CC4)C4CC4)nc(Cl)nc31)[C@H](O)[C@@H]2O [compound 25, Methyl (1S,2R,3S,4R,5S)-4-(2-Chloro-6-((dicyclopropylmethyl)amino)-9H-purin-9-yl)-2,3-dihydroxybicyclo[3.1.0]hexane-1-carboxylate]
ligand efficiency (LE) in 5HT2BR binding (5HT2BR [1]): 0.37
CC50 [12]: > 30000 nM
agonist activity at 5HT2CR (5HT2CR [6]): no appreciable agonist or partial agonist activity
agonist or antagonist activity at 5HT2AR (5HT2AR [7]): no activity as agonist or antagonist
agonist activity at 5HT2BR (5HT2BR [8]; 10 µM, result in words): no appreciable agonist or partial agonist activity
IC50 [13]: ≥ 20000 nM
Stability in plasma, % remaining at 120 min, Human [14]: 95.3%
remaining at 2 h [14]: ~100%
Papp, A->B (CACO-2 cells): 18.47 10^−6 cm/sec

affinity at the A3AR (A3AR [4]; result in words): no measurable affinity
Compound: CCOC(=O)[C@@]12C[C@@H]1[C@@H](n1cnc3c(N(C)C)nc(Cl)nc31)[C@H](O)[C@@H]2O [compound 29, Ethyl (1S,2R,3S,4R,5S)-4-(2-chloro-6-(dimethylamino)-9H-purin-9-yl)-2,3-dihydroxybicyclo[3.1.0]hexane-1-carboxylate]

Compound: CNC(=O)[C@@]12C[C@@H]1[C@@H](n1cnc3c(NCc4cccc(Cl)c4)nc(Cl)nc31)[C@H](O)[C@@H]2O [compound 35]
Ki (5HT2CR [15]): 168 ± 47 nM
5HT2AR % inhibition (5HT2AR [16]): 35%

Compound: OC[C@@]12C[C@@H]1[C@@H](n1cnc3c(NC(C4CC4)C4CC4)nc(Cl)nc31)[C@H](O)[C@@H]2O [compound 14, (1R,2R,3S,4R,5S)-4-(2-Chloro-6-((dicyclopropylmethyl)amino)-9H-purin-9-yl)-1-(hydroxymethyl)bicyclo[3.1.0]hexane-2,3-diol]
agonist activity at 5HT2CR (5HT2CR [6]): no appreciable agonist or partial agonist activity
agonist or antagonist activity at 5HT2AR (5HT2AR [7]): no activity as agonist or antagonist
